Data as given in EP0973746B1, “SUBSTITUTED 3-CYANO QUINOLINES” (Wyeth Holdings Corporation, priority 1997, dated 1998).
≈ marks a conversion by molar mass, not a printed value. Where “and” joins values, the source holds several entries; their conditions need not be identical. Equal values may be shown once. Read-outs that look alike come from different tables or passages of the source. Blank lines part the entries; values can stand above or below the molecule they belong to.

How the values were obtained:
[1] = target: Epithelial Cell Kinase (ECK) (Homo sapiens, UniProt P29317); assay: biochemical
Procedure: In this standard pharmacological test procedure, a biotinylated peptide substrate is first immobilized on neutravidin-coated microtiter plates. The test drug, the Epithelial Cell Kinase (ECK), Mg^++, sodium vanadate (a protein tyrosine phosphatase inhibitor), and an appropriate buffer to maintain pH (7.2) are then added to the immobilized substrate-containing microtiter wells. ATP is then added to initiate phosphorylation. After incubation, the assay plates are washed with a suitable buffer leaving behind phosphorylated peptide which is exposed to horse radish peroxidase (HRP)-conjugated anti-phosphotyrosine monoclonal antibody. The antibody-treated plates are washed again and the HRP activity in individual wells is quantified as a reflection of degree of substrate phosphorylation.

[2] = target: recombinant human MEK 1 (MAPKK) and recombinant human ERK2 (MAPK); assay: Mitogen Activated Protein Kinase (MAPK) assay, two component coupled MEK 1 / ERK2; format: biochemical; conditions: separate entries for the same compound = evaluated more than one time;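 further: MEK 1-activated ERK2 phosphorylates MBP or Myc peptide with 33P-ATP, filter capture and scintillation counting, inhibitor preincubated with ERK2 30 min at 0 °C, inhibition relative to uninhibited control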
Procedure: To evaluate inhibitors of the MAP (mitogen activated protein) kinase a two component coupled standard pharmacological test procedure, which measures phosphorylation of a serine/threonine residue in an appropriate sequence in the substrate in the presence and absence of a putative inhibitor, was used. Recombinant human MEK 1 (MAPKK) was first used to activate recombinant human ERK2 (MAPK) and the activated MAPK (ERK) was incubated with substrate (MBP peptide or MYC peptide) in the presence of ATP, Mg^+2 and radiolabeled ^33P ATP. The phosphorylated peptide was captured on a P 81 phosphocellulose filter (paper filter or embedded in microtiter plate) washed and counted by scintillation methods.
The peptide substrates used in the assay are MBP, peptide substrate ([sequence]), or synthetic Myc substrate, ([sequence]•5 TFA. The recombinant enzymes used were prepared as GST fusion proteins of human ERK 2 and human MEK 1. Inhibitor samples were prepared as 10X stocks in 10% DMSO and an appropriate aliquot was used to deliver either 10 ug/ml for a single point screening dose or 100, 10, 1, and 0.1 uM final concentration for a dose response curve. Final DMSO concentrations were less than or equal to 1%.
The reaction was run as follows in 50 mM Tris kinase buffer, pH 7.4 in a reaction volume of 50 ul. The appropriate volume of kinase buffer and inhibitor sample was added to the tube. Appropriate dilution of enzyme was delivered to give 2-5 ug recombinant MAPK (Erk ) per tube. The inhibitor was incubated with MAPK (Erk) for 30 min at 0 deg. […] Recombinant Mek (MAPKK) ( 0.5-2.5 ug) or fully activated Mek (0.05-0.1 units) was added to activate the Erk and incubated for 30 min at 30° C. […] Samples were incubated at 30°C for 30 minutes and the reaction was stopped by adding 25 µl of ice cold 10 %TCA .After samples were chilled on ice for 30 min, 20 µl of sample was transferred onto P 81 phosphocellulose filter paper or appropriate MTP with embedded P 81 filter. Filter papers or MTP were washed 2 times with a large volume of 1% acetic acid, then 2 times with water. The filters or MTP were briefly air dried before addition of scintillant and samples were counted in the appropriate scintillation counter set up for reading ^33P isotope.
The raw data was captured as cpm. Sample replicates were averaged and corrected for background count. Mean cpm data was tabulated by group and % inhibition by a test compound was calculated as (corrected cpm control- corrected. cpm sample/control) X 100 = % inhibition.

SKBR3 = assay: Inhibition of cancer cell growth as measured by cell number, SKBR3; format: cell-based, human; conditions: Homo sapiens, SK-BR-3, 48 h;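 further: SK-BR-3 cells were selected as a line overexpressing HER2/neu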
Source text: (§1) The cell lines were chosen since they overexpressed epidermal growth factor receptor (EGFR) (i.e. A431) or HER2/neu (SKBR3), or had little to no expression of the these receptors (SW620, LOX, MCF7).

A431 = assay: Inhibition of cancer cell growth as measured by cell number, A431; format: cell-based, human; conditions: Homo sapiens, A-431, 48 h;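 further: human A431 line, picked because it overexpresses epidermal growth factor receptor (EGFR)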
Source text: as §1

SW620 = assay: Inhibition of cancer cell growth as measured by cell number, SW620; format: cell-based, human; conditions: Homo sapiens, SW-620, 48 h;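 further: SW620 was included as a cell line with little or no EGFR or HER2/neu expression, in contrast to receptor-overexpressing lines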
Source text: as §1

[3] = target: T1, His-tagged cytoplasmic domain of EGFR (Homo sapiens, UniProt P00533); assay: Inhibition of Epidermal Growth Factor Receptor Kinase (EGF-R) using recombinant enzyme; format: biochemical; conditions: recombinant enzyme; RR-SRC peptide; average of the number of tests; read-out: IC50;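 further: radiometric kinase assay measuring radiolabeled phosphate transfer from ATP onto the peptide tyrosine by scintillation counting, control is reaction without compound, background subtracted, IC50 from dose-response curve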
T1 construct: containing the EGFR cDNA encoding amino acids 645 - 1186 preceded by Met-Ala-(His)6; made in house; host or cells: Sf9 cells, recombinant baculovirus vHcEGFR52
Procedure: The enzyme used in this assay is the His-tagged cytoplasmic domain of EGFR.
Compounds to be evaluated were made into 10 mg/mL stock solutions in 100% dimethylsulfoxide (DMSO). Prior to experiment, stock solutions were diluted to 500 µM with 100% DMSO and then serially diluted to the desired concentration with HEPES buffer (30 mM HEPES pH 7.4).
For the enzyme reaction, 10 µL of each inhibitor (at various concentrations) were added to each well of a 96-well plate. […] This was allowed to sit for 10 min on ice and was followed by the addition of 5 µl peptide (80 µM final conc.), 10µl of 4X Buffer (Table A), 0.25 µL ^33P-ATP and 12 µL H2O. The reaction was allowed to run for 90 min at room temperature and was followed by spotting the entire volume on to precut P81 filter papers. The filter discs were washed 2X with 0.5% phosphoric acid and radioactivity was measured using a liquid scintillation counter.
The % inhibition of the test compound was determined for at least three different concentrations and the IC50 value was evaluated from the dose response curve. […] CPM(control) is in units of counts per minute and was a number expressing the amount of radiolabeled ATP (g-33P) incorporated into the RR-SRC peptide substrate by the enzyme after 90 minutes at room temperature in the absence of test compound as measured by liquid scintillation counting. The CPM values were corrected for the background counts produced by ATP in the absence of the enzymatic reaction. The IC50 values reported in TABLE 2 are averages of the number of tests conducted.

MCF7 = assay: Inhibition of cancer cell growth as measured by cell number, MCF7; format: cell-based, human; conditions: Homo sapiens, MCF7, 48 h, read-out: IC50 MCF7, cell number, Sulforhodamine B, 48 hours exposure; Table 8;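 further: MCF7 was included as a line with little or no EGFR or HER2/neu expression, in contrast to the receptor-overexpressing lines of the panel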
Source text: as §1

[4] = target: T2, Kinase insert Domain containing Receptor (KDR: the catalytic domain of the VEGF receptor) (Homo sapiens, UniProt P35968); assay: Inhibition of Kinase insert Domain containing Receptor (KDR); format: biochemical; conditions: pH 7.2; radioactive format; read-out: KDR IC50 (converted);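 further: KDR phosphorylating a Glu:Tyr 4:1 copolymer with P32- or P33-labelled ATP, Mg++ and vanadate, read as acid-insoluble radiolabel, compared with compound-free reaction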
T2 construct: KDR: the catalytic domain of the VEGF receptor
Procedure: In this standard pharmacological test procedure, KDR protein is mixed, in the presence or absence of a inhibitor compound, with a substrate peptide to be phosphorylated (a copolymer of glutamic acid and tyrosine, E:Y :: 4:1) and other cofactors such as Mg^++ and sodium vanadate (a protein tyrosine phosphatase inhibitor) in an appropriate buffer to maintain pH (7.2). ATP and a radioactive tracer (either P^32-or P^33- labeled ATP) is then add to initiate phosphorylation. After incubation, the radioactive phosphate associated with the acid-insoluble fraction of the assay mixture is then quantified as reflection of substrate phosphorylation.

LOX = assay: Inhibition of cancer cell growth as measured by cell number, LOX; format: cell-based, human; conditions: Homo sapiens, LOX, 48 h, read-out: IC50 LOX, cell number, Sulforhodamine B, 48 hours exposure; Table 8;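 further: LOX cells served as a line with low or absent EGFR and HER2/neu expression, in contrast to receptor-overexpressing lines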
Source text: as §1

[5] = test system: human epidermoid tumors (A431); assay: In vivo inhibition of the growth of human epidermoid tumors (A431); conditions: for S/T = No. Survivors/No. Treated: Day +28 post tumor staging
Procedure: Representative compounds of this invention (listed below) were evaluated in an in vivo standard pharmacological test procedure which measured its ability to inhibit the growth of human epidermoid tumors. […] BALB/c nu/nu female mice (Charles River, Wilmington, MA) were used in this in vivo standard pharmacological test procedure. A unit of 5 X 10^6 cells were injected SC into mice. When tumors attained a mass of between 100 and 150 mg, the mice were randomized into treatment groups (day zero). […] Control animals received no drug. Tumor mass was determined every 7 days [(length X width^2)/2] for 28 days post staging. Relative tumor growth (Mean tumor mass on days 7, 14, 21, and 28 divided by the mean tumor mass on day zero) is determined for each treatment group.

[6] = read-out: IC50 SKBR3, cell number, Sulforhodamine B, 48 hours exposure, Table 8
[7] = read-out: IC50 A431, cell number, Sulforhodamine B, 48 hours exposure, Table 8
[8] = read-out: IC50 SW620, cell number, Sulforhodamine B, 48 hours exposure, Table 8
[9] = Table 10, 80 mg/kg/dose IP on days 1,5,9
[10] = Table 10, 80 mg/kg/dose PO on days 1 through 10
[11] = Table 11, 80 mg/kg/dose IP on days 1,5 and 9
[12] = Table 11, 80 mg/kg/dose PO on days 1 through 10

Sequence of Epithelial Cell Kinase (ECK) (P29317 24-976, species assumed): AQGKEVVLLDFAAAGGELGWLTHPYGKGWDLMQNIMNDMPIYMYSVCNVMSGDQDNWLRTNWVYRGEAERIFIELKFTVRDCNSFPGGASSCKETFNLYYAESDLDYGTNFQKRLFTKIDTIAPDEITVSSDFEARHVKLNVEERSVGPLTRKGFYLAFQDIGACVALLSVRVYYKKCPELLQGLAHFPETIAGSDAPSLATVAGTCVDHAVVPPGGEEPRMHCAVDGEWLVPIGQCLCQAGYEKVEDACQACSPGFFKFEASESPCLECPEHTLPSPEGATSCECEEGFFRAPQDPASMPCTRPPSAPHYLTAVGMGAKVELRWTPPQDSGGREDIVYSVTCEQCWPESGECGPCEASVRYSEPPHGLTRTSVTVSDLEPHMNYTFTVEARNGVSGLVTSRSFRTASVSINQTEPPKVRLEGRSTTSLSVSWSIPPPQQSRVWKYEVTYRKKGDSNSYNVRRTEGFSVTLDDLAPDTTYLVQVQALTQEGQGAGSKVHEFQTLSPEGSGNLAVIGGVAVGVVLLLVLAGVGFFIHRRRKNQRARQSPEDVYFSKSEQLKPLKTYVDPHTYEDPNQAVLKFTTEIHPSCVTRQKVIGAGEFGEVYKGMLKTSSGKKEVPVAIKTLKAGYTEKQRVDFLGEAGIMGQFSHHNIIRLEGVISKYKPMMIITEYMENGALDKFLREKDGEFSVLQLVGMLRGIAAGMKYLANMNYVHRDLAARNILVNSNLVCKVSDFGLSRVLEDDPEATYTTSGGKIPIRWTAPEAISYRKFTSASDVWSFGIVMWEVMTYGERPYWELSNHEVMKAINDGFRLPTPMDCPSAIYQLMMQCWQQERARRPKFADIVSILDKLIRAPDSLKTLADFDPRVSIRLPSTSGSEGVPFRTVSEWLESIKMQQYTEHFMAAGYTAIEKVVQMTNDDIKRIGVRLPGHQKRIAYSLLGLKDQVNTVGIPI
T2 sequence (P35968 834-1162 limits assumed): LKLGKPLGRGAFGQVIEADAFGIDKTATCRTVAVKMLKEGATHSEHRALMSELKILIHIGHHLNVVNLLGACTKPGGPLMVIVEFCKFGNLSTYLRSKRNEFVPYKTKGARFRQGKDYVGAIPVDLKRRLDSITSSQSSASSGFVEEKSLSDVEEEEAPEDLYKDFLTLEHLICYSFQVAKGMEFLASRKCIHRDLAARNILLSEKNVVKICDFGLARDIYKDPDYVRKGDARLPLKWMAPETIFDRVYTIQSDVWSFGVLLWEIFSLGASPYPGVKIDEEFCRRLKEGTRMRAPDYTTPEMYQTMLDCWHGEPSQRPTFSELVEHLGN
T1 sequence (P00533 669-1210): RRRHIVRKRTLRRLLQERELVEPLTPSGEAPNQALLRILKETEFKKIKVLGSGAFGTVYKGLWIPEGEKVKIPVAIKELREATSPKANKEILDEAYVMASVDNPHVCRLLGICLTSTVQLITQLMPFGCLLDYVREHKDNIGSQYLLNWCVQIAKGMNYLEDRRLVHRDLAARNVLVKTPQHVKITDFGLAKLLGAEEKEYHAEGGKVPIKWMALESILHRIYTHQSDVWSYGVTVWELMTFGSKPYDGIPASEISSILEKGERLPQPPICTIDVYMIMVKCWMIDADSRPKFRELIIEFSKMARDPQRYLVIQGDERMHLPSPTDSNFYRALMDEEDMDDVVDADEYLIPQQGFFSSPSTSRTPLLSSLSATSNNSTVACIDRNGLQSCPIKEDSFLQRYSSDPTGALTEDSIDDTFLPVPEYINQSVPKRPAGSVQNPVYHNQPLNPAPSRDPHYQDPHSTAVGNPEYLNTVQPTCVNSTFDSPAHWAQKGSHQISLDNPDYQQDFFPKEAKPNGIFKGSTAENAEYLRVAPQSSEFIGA

Compound: COc1ccc2c(Nc3cccc(Br)c3)c(C#N)cnc2c1 [Example 3, 4-[(3-Bromophenyl)amino]-7-methoxy-3-guinolinecarbonitrile]
IC50 [1]: 28.2 µM | IC50 [2]: > 100 µM

Compound: N#Cc1cnc2ccc(NC(=O)CCl)cc2c1Nc1cccc(Br)c1 [Example 19, N-[4-[(3-Bromophenyl)amino]-3-cyano-6-quinolinyl]-2-chloroacetamide]
IC50 [1]: 24.1 µM | IC50 [2]: 29 µM

Compound: N#Cc1cnc2cc(O)c(O)cc2c1Nc1cccc(Br)c1 [Example 39, 4-[(3-Bromophenyl)amino]-6,7-dihydroxy-3-quinolinecarbonitrile]
IC50 [1]: 28.1 µM | IC50 [2]: 40 µM

Compound: N#Cc1cnc2cc3c(cc2c1Nc1cccc(Br)c1)OCO3 [Example 40, 8-[(3-Bromophenyl)amino]-[1,3]-dioxolo[4,5-g]quinoline-7-carbonitrile]
IC50 [1]: 27.2 µM | IC50 [2]: > 100 µM

Compound: COc1cc2c(Nc3ccc(Cl)cc3F)c(C#N)cnc2cc1OCCCN1CCOCC1 [Example 81, 4-(4-Chloro-2-fluoro-phenylamino)-6-methoxy-7-(3-morpholin-4-yl-propoxy)-quinoline-3-carbonitrile]
IC50 [1]: 0.425 µM | IC50 [2]: 0.1 µM

Compound: CCN(CC)CC=CC(=O)Nc1ccc2ncc(C#N)c(Nc3cccc(Br)c3)c2c1 [Example 100, 4-Diethylamino-but-2-enoic acid [4-(3-bromophenylamino)-3-cyano-quinolin-6-yl]-amide]
IC50 (SKBR3; read-out: IC50 SKBR3): 0.1 mg/L (≈ 0.209 µM) | IC50 [1]: 41.8 µM | IC50 (A431; read-out: IC50 A431): 0.1 mg/L (≈ 0.209 µM) | IC50 (SW620; read-out: IC50 SW620): 0.8 mg/L (≈ 1.67 µM) | IC50 [2]: 20 µM

Compound: N#Cc1cnc2ccc(NC(=O)C=CCN3CCOCC3)cc2c1Nc1ccc(F)c(Cl)c1 [Example 147, N-{4-[(3-Chloro-4-fluorophenyl)amino]-3-cyano-6-quinolinyl} -4-morpholino-2-butenamide]
IC50 [1]: 43.1 µM | IC50 [2]: 80 µM

Compound: C=CC(=O)Nc1ccc2ncc(C#N)c(Nc3ccc(F)c(F)c3)c2c1 [Example 154, N-{3-Cyano-4-[(3,4-difluorophenyl)amino]-6-quinolinyl]-2-propenamide]
IC50 (SKBR3; [6]): 0.05 mg/L (≈ 0.143 µM) | IC50 [3]: 0.15 µM | IC50 (MCF7): 2.57 mg/L (≈ 7.34 µM) | IC50 (A431; [7]): 0.07 mg/L (≈ 0.2 µM) | IC50 (SW620; [8]): 0.55 mg/L (≈ 1.57 µM) | IC50 [4]: > 85.6 µM | IC50 (LOX): 0.44 mg/L (≈ 1.26 µM) | IC50 [2]: 20 µM

Compound: N#Cc1cnc2ccc(NC(=O)C=CCN3CCOCC3)cc2c1Nc1ccc(F)c(Br)c1 [Example 174, N-{4-[(3-Bromo-4-fluorophenyl)amino]-3-cyano-6-quinolinyl] -4-morpholino-2-butenamide]
IC50 [1]: 39.2 µM | IC50 (SW620; read-out: IC50 SW620): > 5 mg/L | IC50 [2]: 2.5 µM

IC50 [1]: 39.7 µM
Compound: CN1CCN(CC#CC(=O)Nc2ccc3ncc(C#N)c(Nc4cccc(Br)c4)c3c2)CC1 [Example 190, N-[4-[(3-Bromophenyl)amino]-3-cyano-6-quinolinyl]-4-(N-methylpiperazino)-2-butynamide]

IC50 (SKBR3; read-out: IC50 SKBR3): 0.06 mg/L (≈ 0.126 µM) | IC50 [1]: 42 µM
Compound: CC(C)N(C)CC#CC(=O)Nc1ccc2ncc(C#N)c(Nc3cccc(Br)c3)c2c1 [Example 191, N-[4-[(3-Bromophenyl)amino]-3-cyano-6-quinolinyl]-4-(N-isopropyl-N-methylamino)-2-butynamide]

Compound: COc1cc2ncc(C#N)c(Nc3cccc(Br)c3)c2cc1NC(=O)C=CCN1CCOCC1 [Example 200, 4-Morpholin-4-yl-but-2-enoic acid [4-(3-bromo-phenylamino)-3-cyano-7-methoxy-quinolin-6-yl]-amide]
IC50 [1]: 38.3 µM | IC50 (SW620; read-out: IC50 SW620): > 5 mg/L | IC50 [2]: > 100 µM

Compound: COc1cc2ncc(C#N)c(Nc3ccc(F)c(Cl)c3)c2cc1NC(=O)C=CCN(C)C [Example 203, 4-Dimethylamino-but-2-enoic acid [4-(3-chloro-4-fluorophenylamino)-3-cyano-7-methoxy-quinolin-6-yl]-amide]
IC50 [1]: 2.2 µM | %T/C Day 7 [5, 9]: 20% | %T/C Day 14 [5, 9]: 12% | %T/C Day 21 [5, 9]: 14% | %T/C Day 28 [5, 9]: 16% | S/T = No. Survivors/No. Treated [5, 9]: 5/5 | %T/C Day 7 [5, 10]: 15% | %T/C Day 14 [5, 10]: 8% | %T/C Day 21 [5, 10]: 12% | %T/C Day 28 [5, 10]: 17% | S/T = No. Survivors/No. Treated [5, 10]: 4/5 | IC50 [2]: < 1 µM and 0.8 µM

Compound: CCN(CC)CC=CC(=O)Nc1cc2c(Nc3ccc(F)c(Cl)c3)c(C#N)cnc2cc1OC [Example 204, 4-Diethylamino-but-2-enoic acid [4-(3-chloro-4-fluorophenylamino)-3-cyano-7-methoxy-quinolin-6-yl]-amide]
IC50 [1]: 20.7 µM | %T/C Day 7 [5, 9]: 45% | %T/C Day 14 [5, 9]: 42% | %T/C Day 21 [5, 9]: 55% | %T/C Day 28 [5, 9]: 49% | S/T = No. Survivors/No. Treated [5, 9]: 5/5 | %T/C Day 7 [5, 10]: 25% | %T/C Day 14 [5, 10]: 18% | %T/C Day 21 [5, 10]: 43% | %T/C Day 28 [5, 10]: 51% | S/T = No. Survivors/No. Treated [5, 10]: 4/5 | IC50 [2]: 35 µM

Compound: COc1cc2ncc(C#N)c(Nc3ccc(F)c(Cl)c3)c2cc1NC(=O)C=CCN1CCOCC1 [Example 205, 4-Morpholin-4-yl-but-2-enoic acid [4-(3-chloro-4-fluorophenylamino)-3-cyano-7-methoxy-quinolin-6-yl]-amide]
IC50 [1]: 40.4 µM | %T/C Day 7 [5, 9]: 30% | %T/C Day 14 [5, 9]: 25% | %T/C Day 21 [5, 9]: 38% | %T/C Day 28 [5, 9]: 61% | S/T = No. Survivors/No. Treated [5, 9]: 5/5 | %T/C Day 7 [5, 10]: 23% | %T/C Day 14 [5, 10]: 19% | %T/C Day 21 [5, 10]: 23% | %T/C Day 28 [5, 10]: 29% | S/T = No. Survivors/No. Treated [5, 10]: 5/5 | IC50 [2]: > 100 µM

Compound: COc1cc2ncc(C#N)c(Nc3ccc(F)c(Br)c3)c2cc1NC(=O)C=CCN(C)C [Example 208, 4-Dimethylamino-but-2-enoic acid [4-(3-bromo-4-fluorophenylamino)-3-cyano-7-methoxy-quinolin-6-yl]-amide]
IC50 (SKBR3; [6]): 0.038 mg/L (≈ 0.0763 µM) | IC50 [3]: 0.0015 µM | IC50 (A431; [7]): 0.067 mg/L (≈ 0.134 µM) | IC50 (SW620; [8]): 0.453 mg/L (≈ 0.909 µM) | IC50 [4]: 20.1 µM | %T/C Day 7 [5, 11]: 14% | %T/C Day 14 [5, 11]: 15% | %T/C Day 21 [5, 11]: 26% | %T/C Day 28 [5, 11]: 32% | S/T = No. Survivors/No. Treated [5, 11]: 5/5 | %T/C Day 7 [5, 12]: 6% | %T/C Day 14 [5, 12]: 6% | %T/C Day 21 [5, 12]: 8% | %T/C Day 28 [5, 12]: 10% | S/T = No. Survivors/No. Treated [5, 12]: 5/5 | IC50 [2]: 13 µM

Compound: CCOc1cc2ncc(C#N)c(Nc3cccc(Br)c3)c2cc1NC(=O)C=CCN(CC)CC [Example 217, 4-Diethylamino-but-2-enoic acid [4-(3-bromo-phenylamino)-3-cyano-7-ethoxy-quinolin-6-yl]-amide]
IC50 [1]: 0.115 µM | %T/C Day 7 [5, 11]: 25% | %T/C Day 14 [5, 11]: 36% | %T/C Day 21 [5, 11]: 51% | %T/C Day 28 [5, 11]: 56% | S/T = No. Survivors/No. Treated [5, 11]: 5/5 | %T/C Day 7 [5, 12]: 30% | %T/C Day 14 [5, 12]: 33% | %T/C Day 21 [5, 12]: 43% | %T/C Day 28 [5, 12]: 42% | S/T = No. Survivors/No. Treated [5, 12]: 5/5

Compound: COc1ccc2ncc(C#N)c(Nc3ccc(Cl)cc3F)c2c1 [Example 283, 4-(4-Chloro-2-fluoro-phenylamino)-6-methoxy-quinoline-3-carbonitrile]
IC50 [1]: 9.15 µM | IC50 [2]: > 100 µM

Compound: COc1ccc2ncc(C#N)c(Nc3ccc(C)c(O)c3)c2c1 [Example 284, 4-(3-Hydroxy-4-methyl-phenylamino)-6-methoxy-quinoline-3-carbonitrile]
IC50 [1]: 32.8 µM | IC50 [2]: 4 µM
